≈ marks a conversion by molar mass, not a printed value. Read-outs that look alike come from different tables or passages of the source. Blank lines part the entries; values can stand above or below the molecule they belong to.
How the values were obtained:
[1] = system: Ax 15 Corynebacterium jeikeium; assay: MIC microtiter plate test, axilla bacteria; assay type: cell-based; conditions: for MIC: Corynebacterium jeikeium
Excerpt: (§1) The different bacterial strains had been isolated from the human axilla by current microbiological practice. They were taxonomically identified by cell morphology, gram-reaction and biochemical tests included in the Api coryne test kit (BioMerieux, France). Strain Staphylococcus epidermidis Ax25 was identified by fatty acid methyl ester analysis (FAME; German type strain collection DSMZ, Germany). The strains were maintained on Tryptic soy broth plates, this standard medium being amended with 5 g per Litre of Tween 80 and 1 g of Soybean lecithin. Plates were incubated at 36° C for a period 48 hours. The bacteria were then swabbed from the plates and suspended in 4 ml of Müller-Hinton broth amended with 100 mg of Tween80 per Litre (MH-Tween) and incubated again at 36° C for 16 hours. Following incubation the bacterial suspensions were diluted in MH-Tween to obtain a final cell density of 10^6 colony forming units per ml. For each fragrance material four microtiter plates were used in the example, each microtiter plate having 8 rows, A-H, and 12 columns, 1-12. To each column a diluted suspension of a different test organism was distributed, 100 µl per well. 1% stock solutions of the fragrance materials were then prepared in MH-Tween broth. The fragrance material was dispersed by ultrasonication into the aqueous medium to obtain a homogenous emulsion. 100 µl per well of this emulsion was then added to the first row of the microtiter plates already containing the target organisms. Serial dilution series were then prepared starting at row A and continuing until row G, each time removing 100 µl from a well and transferring it to the next well. In this way fragrance concentrations of 0.5%, 0.25%, 0.125%, 0.0625%, 0.03125%, 0.0156% and 0.0078% were tested for their antibacterial efficacy. The reference compound Triclosan was tested at 16 fold lower concentrations. The plates were covered with plastic films and incubated for 24 h at 36° C with shaking at 250 rpm. The turbidity developing in the microtiter plates was then examined after 24 h to determine microbial growth. The minimal concentration of fragrance inhibiting the growth of an organism by at least 80% was determined as the minimal inhibitory concentration (MIC).
(§2) Ax 25 was identified as Staphylococcus epidermidis by FAME analysis. Identification with the Api Coryne test kit yielded the following species assignments for the remainder of the strains: Ax 26 Corynebacterium sp.; Ax 3 Corynebacterium bovis; Ax 7 Corynebacterium group G; Ax 10 Corynebacterium jeikeium; Ax 11 Corynebacterium jeikeium; Ax 12 Corynebacterium jeikeium; Ax 15 Corynebacterium jeikeium; Ax 20 Corynebacterium striatum/amycolatum; Ax 19 Corynebacterium jeikeium. The strains were isolated from the axilla of 8 human volunteers. Based on biochemical tests and colony morphology all strains were distinct from each other, even the several strains all belonging to Corynebacterium jeikeium.

[2] = system: Ax 7 Corynebacterium group G; assay: MIC microtiter plate test, axilla bacteria; assay type: cell-based; conditions: for MIC: Corynebacterium
Excerpt: as §1, §2

[3] = system: Staphylococcus epidermidis Ax25; assay: MIC microtiter plate test, axilla bacteria; assay type: cell-based; conditions: for MIC: Staphylococcus epidermidis, AX25
Excerpt: as §1, §2

[4] = Vapour pressure; assay type: physicochemical
Excerpt: Odoriferous substances are by definition volatile compounds which evaporate from the skin and therefore loose their deodorising effect. Furthermore small water-soluble fragrance compounds can get dissolved in sweat and are thus rapidly diluted under conditions of high sweat secretion which further reduces the duration of the deodorising effect. Therefore a low water solubility indicated by a high LogP value and a low volatility indicated by low vapour pressure are desired for odoriferous substances which are used for their antibacterial activity.

[5] = system: Corynebacteria; assay: MIC microtiter plate test, Corynebacteria; assay type: cell-based
Excerpt: The different bacterial strains had been isolated from the human axilla by current microbiological practice. They were taxonomically identified by cell morphology, gram-reaction and biochemical tests included in the Api coryne test kit (BioMerieux, France). Strain Staphylococcus epidermidis Ax25 was identified by fatty acid methyl ester analysis (FAME; German type strain collection DSMZ, Germany). The strains were maintained on Tryptic soy broth plates, this standard medium being amended with 5 g per Litre of Tween 80 and 1 g of Soybean lecithin. Plates were incubated at 36° C for a period 48 hours. The bacteria were then swabbed from the plates and suspended in 4 ml of Müller-Hinton broth amended with 100 mg of Tween80 per Litre (MH-Tween) and incubated again at 36° C for 16 hours. Following incubation the bacterial suspensions were diluted in MH-Tween to obtain a final cell density of 10^6 colony forming units per ml. For each fragrance material four microtiter plates were used in the example, each microtiter plate having 8 rows, A-H, and 12 columns, 1-12. […]
Since sandela is known to be a mixture of different reaction products, commercial sandela was subjected to a distillation process. […] The different fractions were evaluated for their antimicrobial activity (Table 6) with the method described in example 1. […]

[6] = system: Ax 20 Corynebacterium striatum/amycolatum; assay: MIC microtiter plate test, axilla bacteria; assay type: cell-based; conditions: Ax20, growth inhibition by at least 80%, 24 h at 36° C
Excerpt: as §1, §2

[7] = system: Ax 11 Corynebacterium jeikeium; assay: MIC microtiter plate test, axilla bacteria; assay type: cell-based; conditions: Ax11, growth inhibition by at least 80%, 24 h at 36° C
Excerpt: as §1, §2

[8] = system: Ax 3 Corynebacterium bovis; assay: MIC microtiter plate test, axilla bacteria; assay type: cell-based; conditions: Ax3, growth inhibition by at least 80%, 24 h at 36° C
Excerpt: as §1, §2

[9] = system: Ax 12 Corynebacterium jeikeium; assay: MIC microtiter plate test, axilla bacteria; assay type: cell-based; conditions: Ax12, growth inhibition by at least 80%, 24 h at 36° C
Excerpt: as §1, §2

[10] = system: Ax 10 Corynebacterium jeikeium; assay: MIC microtiter plate test, axilla bacteria; assay type: cell-based; conditions: Ax10, growth inhibition by at least 80%, 24 h at 36° C
Excerpt: as §1, §2

[11] = system: Ax 26 Corynebacterium sp.; assay: MIC microtiter plate test, axilla bacteria; assay type: cell-based; conditions: for MIC: Corynebacterium
Excerpt: as §1, §2

[12] = Table 7, Corynebact. Ax15, 24 hours
[13] = Table 8, Corynebact. Ax15, 24 hours
[14] = Table 7, Corynebact. Ax7, 24 hours
[15] = Table 8, Corynebact. Ax7, 24 hours
[16] = Table 7, S. epidermidis, 24 hours
[17] = Table 8, S. epidermidis, 24 hours
[18] = Ax15, growth inhibition by at least 80%, 24 h at 36° C
[19] = Ax7, growth inhibition by at least 80%, 24 h at 36° C
[20] = Ax 25, growth inhibition by at least 80%, 24 h at 36° C
[21] = Corynebacterium jeikeium, read-out: Minimal inhibitory concentration (MIC)

Compound: COC1CC(C2CC3CC2C(C)C3(C)C)CCC1O (single isomer, unassigned; peak a) [Peak A]
Bacteriostatic activity (concentration needed for at least 80% reduction in growth) [1, 12]: 0.0048 percent (w/v)
Bacteriostatic activity (concentration needed for at least 80% reduction in growth) [1, 13]: 0.0048 percent (w/v)
Bacteriostatic activity (concentration needed for at least 80% reduction in growth) [2, 14]: 0.0048 percent (w/v)
Bacteriostatic activity (concentration needed for at least 80% reduction in growth) [2, 15]: 0.0048 percent (w/v)
Bacteriostatic activity (concentration needed for at least 80% reduction in growth) [3, 16]: 0.0040 percent (w/v)
Bacteriostatic activity (concentration needed for at least 80% reduction in growth) [3, 17]: 0.0040 percent (w/v)

Compound: COC1CC(C2CC3CC2C(C)C3(C)C)CCC1O (single isomer, unassigned; peak b) [Peak B]
Bacteriostatic activity (concentration needed for at least 80% reduction in growth) [1, 12]: 0.0028 percent (w/v)
Bacteriostatic activity (concentration needed for at least 80% reduction in growth) [1, 13]: 0.0028 percent (w/v)
Bacteriostatic activity (concentration needed for at least 80% reduction in growth) [2, 14]: 0.0028 percent (w/v)
Bacteriostatic activity (concentration needed for at least 80% reduction in growth) [2, 15]: 0.0028 percent (w/v)
Bacteriostatic activity (concentration needed for at least 80% reduction in growth) [3, 16]: 0.0023 percent (w/v)
Bacteriostatic activity (concentration needed for at least 80% reduction in growth) [3, 17]: 0.0023 percent (w/v)

Compound: COC1CC(C2CC3CC2C(C)C3(C)C)CCC1O (stereo not shown) [2-methoxy-4-(5,5,6-trimethylbicyclo[2.2.1]hept-2-yl)cyclohexan-1-ol]
activity against Corynebacteria [5]: highest activity

Compound: COC1CCC(C2CC3CC2C(C)C3(C)C)CC1O (stereo not shown) [2-methoxy-5-(5,5,6-trimethyl-bicyclo[2.2.1]hept-2-yl)cyclohexan-1-ol]
activity against Corynebacteria [5]: highest activity

Compound: CC(C)=CCCC(C)=CCCC(C)=CCO [Farnesol, 3,7,11-trimethyl-2,6,10-dodecatrien-1-ol]
vapour pressure [4]: 1.35 µg/L
MIC ([6]; Corynebacterium striatum, read-out: Minimal inhibitory concentration (MIC)): 137 µg/mL (≈ 616 µM)
MIC ([1]; Ax15, growth inhibition by at least 80%, 24 h at 36° C, read-out: Minimal inhibitory concentration (MIC)): 156 µg/mL (≈ 702 µM)
MIC ([1]; Table 7, Corynebact. Ax15, 24 hours, read-out: Bacteriostatic activity (concentration needed for at least 80% reduction in growth)): 156 µg/mL (≈ 702 µM)
Bacteriostatic activity (concentration needed for at least 80% reduction in growth) [1, 13]: 0.0156 percent (w/v)
MIC [7, 21]: 195 µg/mL (≈ 877 µM)
MIC ([2]; Ax7, growth inhibition by at least 80%, 24 h at 36° C, read-out: Minimal inhibitory concentration (MIC)): 137 µg/mL (≈ 616 µM)
MIC ([2]; Table 7, Corynebact. Ax7, 24 hours, read-out: Bacteriostatic activity (concentration needed for at least 80% reduction in growth)): 137 µg/mL (≈ 616 µM)
Bacteriostatic activity (concentration needed for at least 80% reduction in growth) [2, 15]: 0.0137 percent (w/v)
MIC ([11]; Ax26, growth inhibition by at least 80%, 24 h at 36° C, read-out: Minimal inhibitory concentration (MIC)): 78 µg/mL (≈ 351 µM)
MIC ([11]; Table 7, Corynebact. Ax26, 24 hours, read-out: Bacteriostatic activity (concentration needed for at least 80% reduction in growth)): 78 µg/mL (≈ 351 µM)
Bacteriostatic activity (concentration needed for at least 80% reduction in growth) ([11]; Table 8, Corynebact. Ax26, 24 hours): 0.0078 percent (w/v)
MIC ([8]; Corynebacterium bovis, read-out: Minimal inhibitory concentration (MIC)): 156 µg/mL (≈ 702 µM)
MIC [9, 21]: 137 µg/mL (≈ 616 µM)
MIC [10, 21]: 78 µg/mL (≈ 351 µM)
MIC ([3]; Ax 25, growth inhibition by at least 80%, 24 h at 36° C, read-out: Minimal inhibitory concentration (MIC)): 156 µg/mL (≈ 702 µM)
MIC ([3]; Table 7, S. epidermidis, 24 hours, read-out: Bacteriostatic activity (concentration needed for at least 80% reduction in growth)): 156 µg/mL (≈ 702 µM)
Bacteriostatic activity (concentration needed for at least 80% reduction in growth) [3, 17]: 0.0156 percent (w/v)

Compound: CCC(=CCC1CC=C(C)C1(C)C)CO (stereo not shown) [Radjanol]
Minimal inhibitory concentration (MIC) [1, 18]: 0.125. % weight/ volume
Minimal inhibitory concentration (MIC) [2, 19]: 0.0625 % weight/ volume
Minimal inhibitory concentration (MIC) [3, 20]: 0.1250 % weight/ volume

Other lines, results leading:

vapour pressure [4]: about 2.2 µg/L
Compound: CC1C2CC(CC2C2CCCCC2O)C1(C)C (stereo not shown) [2-(5,5,6-trimethylbicyclo[2.2.1]hept-2-yl)-cyclohexanol]

vapour pressure [4]: about 2.2 µg/L
Compound: CC1C2CC(CC2C2CCCC(O)C2)C1(C)C (stereo not shown) [3-(5,5,6-trimethylbicyclo[2.2.1]hept-2-yl)-cyclohexanol]

vapour pressure [4]: about 2.2 µg/L
Compound: CC1C2CC(CC2C2CCC(O)CC2)C1(C)C (stereo not shown) [4-(5,5,6-trimethylbicyclo[2.2.1]hept-2-yl)-cyclohexanol]

Minimal inhibitory concentration (MIC) [6]: 0.1250 % weight/ volume
Minimal inhibitory concentration (MIC) [1, 18]: 0.2500 % weight/ volume
Minimal inhibitory concentration (MIC) [7]: 0.2500 % weight/ volume
Minimal inhibitory concentration (MIC) [2, 19]: 0.1250 % weight/ volume
Minimal inhibitory concentration (MIC) [8]: 0.1250 % weight/ volume
Minimal inhibitory concentration (MIC) [9]: 0.2500 % weight/ volume
Minimal inhibitory concentration (MIC) [10]: 0.2500 % weight/ volume
Minimal inhibitory concentration (MIC) [3, 20]: 0.1250 % weight/ volume
Compound: CC1=CCC(/C=C\C(C)C(C)O)C1(C)C (stereo not shown) [Ebanol]

vapour pressure [4]: 109 µg/L
Compound: C=CCc1ccc(O)c(OC)c1 [Eugenol]

Minimal inhibitory concentration (MIC) [6]: 0.1250 % weight/ volume
Minimal inhibitory concentration (MIC) [1, 18]: 0.2500 % weight/ volume
Minimal inhibitory concentration (MIC) [7]: 0.1250 % weight/ volume
Minimal inhibitory concentration (MIC) [2, 19]: 0.1250 % weight/ volume
Minimal inhibitory concentration (MIC) [8]: 0.1250 % weight/ volume
Minimal inhibitory concentration (MIC) [9]: 0.1250 % weight/ volume
Minimal inhibitory concentration (MIC) [10]: 0.1250 % weight/ volume
Minimal inhibitory concentration (MIC) [3, 20]: 0.1250 % weight/ volume
Compound: CC1=CCC(CCC(C)C(C)O)C1(C)C (stereo not shown) [Sandalore]

Source: patent EP1184030A1, “Antibacterial composition comprising trimethylnorbornanylcyclohexanol derivatives” (Givaudan SA, priority 2000, dated 2002)
